Data from patent publication US20120258980A1, “Antibacterial Agent for Drug-Resistant Bacteria, Method for Screening for Same, and Use of Same” (priority 2009, published 2012).
Like-named read-outs stand apart in the source and are kept apart here.

How the values were obtained:
[1] = system: MRSA, CA-MRSA and MSSA of Staphylococcus aureus; assay: MIC measurement, Test Example 4 (MRSA, CA-MRSA and MSSA strains); format: cell-based
Protocol: (§1) Each of the bacterial strains listed in Table 1-1 was shake-cultured at 37° C. overnight in 4 mL of a medium (Tryptical Soy Broth: TSB, product of Becton Dickinson and Company). FDA209P was used as a control.
(§2) After completion of culturing, the resultant culture was suspended in a cation-adjusted Mueller Hinton Broth (CAMHB, product of Becton Dickinson and Company). Then, the obtained bacterial culture was adjusted in absorbance with the CAMHB so that the absorbance at 578 nm of the bacterial culture was adjusted to 0.3 measured by an absorption spectrometer. In addition, the resultant bacterial culture was 500-fold diluted with the CAMHB.
(§3) Each of the 500-fold diluted, pre-cultured bacterial cultures was added at 50 μL/well to the CAMHB containing the quinolones and the nybomycins at various concentrations (50 μL/well), followed by statically culturing at 37° C. overnight.
(§4) After completion of culturing, the growth of the bacteria was visually determined based on turbidity to measure MIC in each bacterial strain.
Glycopeptides, imipenem, quinolones and nybomycins were studied for antibacterial activity against the bacterial strains listed in Table 2-1; i.e., MRSA, CA-MRSA and MSSA of Staphylococcus aureus.

VRSA clinical isolates = details: based on NARSA, cited from earlier work
[2] = system: VISA clinical isolates of MRSA (VI-MRSA) and of MSSA (VI-MSSA); assay: microbe, parasite or virus in culture; format: cell-based, Staphylococcus aureus
Protocol: as §1, §2, §3, §4
Here, the glycopeptides used were VCM and TEIC. The β-lactam used was OXA.

teicoplanin
MIC ([1]; ATCC 29213, MSSA): 2 µg/mL
MIC ([1]; COL, MRSA): 2 µg/mL
MIC ([1]; FDA209P, MSSA): 0.06 µg/mL
MIC ([1]; ISA12-1, MRSA): 1 µg/mL
MIC ([1]; ISA12-2, MRSA): 1 µg/mL
MIC ([1]; ISA35-1, MRSA): 2 µg/mL
MIC ([1]; ISA37-1, MSSA): 1 µg/mL
MIC ([1]; ISA49-1, MSSA): 0.5 µg/mL
MIC ([1]; ISA51-1, MSSA): 0.5 µg/mL
MIC ([1]; ISA56-3, MRSA): 4 µg/mL
MIC ([1]; ISA58-1, MRSA): 2 µg/mL
MIC ([1]; ISA62-1, MRSA): 1 µg/mL
MIC ([1]; ISA73-1, MSSA): 2 µg/mL
MIC ([1]; KBSA32, MRSA): 1 µg/mL
MIC ([1]; KBSA34, MRSA): 1 µg/mL
MIC ([1]; KBSA72, MRSA): 1 µg/mL
MIC ([1]; KBSA96, MRSA): 1 µg/mL
MIC ([1]; KBSA171, MRSA): 0.25 µg/mL
MIC ([1]; KSA24, MRSA): 1 µg/mL
MIC ([1]; KSA31, MRSA): 1 µg/mL
MIC ([1]; KSA36, MRSA): 1 µg/mL
MIC ([1]; MW2, CA-MRSA): 0.5 µg/mL
MIC ([1]; N315, MRSA): 0.25 µg/mL
MIC ([1]; NCTC 8325, MSSA): 0.5 µg/mL
MIC ([1]; USA300 FPR3757, CA-MRSA): 1 µg/mL
MIC (VRSA clinical isolates; VRS1, VRSA, Michigan): 64 µg/mL
MIC (VRSA clinical isolates; VRS2, VRSA, Pennsylvania): 8 µg/mL
MIC (VRSA clinical isolates; VRS3, VRSA, New York): 16 µg/mL
MIC (VRSA clinical isolates; VRS4, VRSA, New York): 32 µg/mL
MIC (VRSA clinical isolates; VRS5, VRSA, Michigan): 128 µg/mL
MIC (VRSA clinical isolates; VRS6, VRSA, Michigan): >256 µg/mL
MIC (VRSA clinical isolates; VRS7, VRSA, Michigan): >256 µg/mL
MIC ([2]; 99/3700-W, VI-MRSA, The United Kingdom): 2 µg/mL
MIC ([2]; 99/3759-V, VI-MRSA, The United Kingdom): 8 µg/mL
MIC ([2]; 28160, VI-MRSA, South African Republic): 4 µg/mL
MIC ([2]; 98141, VI-MRSA, France): 4 µg/mL
MIC ([2]; A7 (JCSC4842), VI-MRSA, Taiwan): 8 µg/mL
MIC ([2]; AMC11094, VI-MRSA, Korea): 8 µg/mL
MIC ([2]; B7 (JCSC4852), VI-MRSA, Taiwan): 16 µg/mL
MIC ([2]; BR1, VI-MRSA, Brazil): 2 µg/mL
MIC ([2]; BR2, VI-MRSA, Brazil): 1 µg/mL
MIC ([2]; BR3, VI-MRSA, Brazil): 4 µg/mL
MIC ([2]; BR4, VI-MRSA, Brazil): 8 µg/mL
MIC ([2]; BR5, VI-MRSA, Brazil): 4 µg/mL
MIC ([2]; HIP06297, VI-MRSA, America): 8 µg/mL
MIC ([2]; HIP06854, VI-MRSA, America): 2 µg/mL
MIC ([2]; HIP07920, VI-MRSA, America): 2 µg/mL
MIC ([2]; HIP07930, VI-MRSA, America): 4 µg/mL
MIC ([2]; HIP08926, VI-MRSA, America): 4 µg/mL
MIC ([2]; HIP09143, VI-MRSA, America): 4 µg/mL
MIC ([2]; HIP09313, VI-MRSA, America): 4 µg/mL
MIC ([2]; HIP09433, VI-MRSA, America): 8 µg/mL
MIC ([2]; HIP09662, VI-MRSA, America): 4 µg/mL
MIC ([2]; HIP09735, VI-MRSA, America): 4 µg/mL
MIC ([2]; HIP09737, VI-MSSA, America): 4 µg/mL
MIC ([2]; HIP09740, VI-MRSA, America): 4 µg/mL
MIC ([2]; HIP10267, VI-MRSA, America): 4 µg/mL
MIC ([2]; HIP10540, VI-MRSA, America): 16 µg/mL
MIC ([2]; HIP12864, VI-MRSA, America): 8 µg/mL
MIC ([2]; HIP13036, VI-MRSA, America): 4 µg/mL
MIC ([2]; HIP13057, VI-MRSA, America): 8 µg/mL
MIC ([2]; IL (HIP7737), VI-MRSA, America): 4 µg/mL
MIC ([2]; JCSC7193, VI-MRSA, Thailand): 8 µg/mL
MIC ([2]; JCSC7195, VI-MRSA, Thailand): 8 µg/mL
MIC ([2]; JCSC7203, VI-MRSA, Thailand): 4 µg/mL
MIC ([2]; LIM2, VI-MRSA, France): 8 µg/mL
MIC ([2]; LY-1999-01, VI-MSSA, Oman): 8 µg/mL
MIC ([2]; LY-1999-03, VI-MRSA, Oman): 8 µg/mL
MIC ([2]; MI (HIP5827), VI-MRSA, America): 8 µg/mL
MIC ([2]; Mu3, VI-MRSA, Japan): 8 µg/mL
MIC ([2]; Mu50, VI-MRSA, Japan): 16 µg/mL
MIC ([2]; NJ (HIP5836), VI-MRSA, America): 8 µg/mL
MIC ([2]; NRS76, VI-MSSA, America): 4 µg/mL
MIC ([2]; NRS79, VI-MRSA, America): 8 µg/mL
MIC ([2]; NRS118, VI-MRSA, America): 8 µg/mL
MIC ([2]; NRS126, VI-MRSA, America): 2 µg/mL
MIC ([2]; P1V44, VI-MSSA, Belgium): 16 µg/mL
MIC ([2]; PC, VI-MRSA, America): 4 µg/mL
MIC ([2]; SA MER-S6, VI-MSSA, France): 8 µg/mL
MIC ([2]; SA MER-S12, VI-MSSA, France): 16 µg/mL
MIC ([2]; SA MER-S20, VI-MSSA, France): 32 µg/mL
